Measured values as given in patent US5698565A, “Use of phenoxy-pyridine derivatives” (Hoffmann-La Roche Inc., priority 1995, dated 1997).

target: T1, dopamine-D4 receptor (Homo sapiens, UniProt P21917); assay: [3H]-spiperone binding at the D4 receptor, membranes of D4-CHO cells; details: crude membranes from D4-CHO cells, 200 pM [3H]-spiperone, room temperature, 90 minutes
T1 construct: expressed in transfected cells; host or cells: CHO (Chinese Hamster Ovary) cells, D4-CHO; crude membranes
Method: Compounds of formula I were characterized by their binding behavior at the D4 receptor.
CHO cells (Chinese Hamster Ovary) were used in the test. Crude membranes were isolated by ultracentrifugation from D4 -CHO and D2 -CHO cells and were stored at -80° C. After thawing and homogenizing in a buffer solution (50 mM Tris, 1 mM EDTA, 5 mM KCl, 1.5 mM CaCl2, 4 mM MgCl2, pH 7.4) they were incubated at room temperature for 90 minutes with 200 pM [3H]-spiperone and an increasing concentration (1×10^-11 M to 1×10^-4 M) of test compound. A non-specific binding was established by incubating in the presence of 1×10^-5 M (+)-butaclamol. The unbound radioligand was removed by filtration through a GF/C glass filter and the bound radioactivity was determined by scintillation in a Packard TopCount.
The calculation of the value was effected with ligand.

T1 sequence (P21917 whole entry): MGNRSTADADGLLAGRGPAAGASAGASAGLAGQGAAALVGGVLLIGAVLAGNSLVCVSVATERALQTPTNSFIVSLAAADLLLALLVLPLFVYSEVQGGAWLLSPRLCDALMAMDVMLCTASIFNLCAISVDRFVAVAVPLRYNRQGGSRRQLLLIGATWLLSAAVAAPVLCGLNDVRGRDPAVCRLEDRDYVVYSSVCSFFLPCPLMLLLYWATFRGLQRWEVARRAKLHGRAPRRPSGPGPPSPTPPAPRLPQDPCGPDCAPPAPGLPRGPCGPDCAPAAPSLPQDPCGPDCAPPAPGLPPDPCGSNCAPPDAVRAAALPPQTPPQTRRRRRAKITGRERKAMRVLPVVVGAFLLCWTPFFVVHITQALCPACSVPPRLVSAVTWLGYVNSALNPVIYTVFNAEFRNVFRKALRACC

SMILES | Ki [nM]
Cc1cccc(OCC(O)CN2CC=C(c3ccccc3)CC2)c1 (centres unmarked) [Compound 1, 1-(4-Phenyl-3,6-dihydro-2H-pyridin-1-yl)-3-m-tolyloxy-5-propan-2-ol] | < 100
Cc1ccccc1OCC(O)CN1CC=C(c2ccccc2)CC1 (centres unmarked) [Compound 2, 1-(4-Phenyl-3,6-dihydro-2H-pyridin-1-yl)-3-o-tolyloxy-propan-2-ol] | < 100
OC(COc1cccc(C(F)(F)F)c1)CN1CC=C(c2ccccc2)CC1 (centres unmarked) [Compound 3, 1-(4-Phenyl-3,6-dihydro-2H-pyridin-1-yl)-3-(3-trifluoro-methylphenoxy)-propan-2-ol] | < 100
OCc1ccccc1OCC(O)CN1CC=C(c2ccccc2)CC1 (centres unmarked) [Compound 4, 1-(2-Hydroxymethyl-phenoxy)-3-(4-phenyl-3,6-dihydro-2H-pyridin-1-yl)-propan-2-ol] | < 100
COc1ccccc1OCC(O)CN1CC=C(c2ccccc2)CC1 (centres unmarked) [Compound 5, 1-(2-Methoxy-phenoxy)-3-(4-phenyl-3,6-dihydro-2H-pyridin-1-yl)-propan-2-ol] | < 100
CC(=O)Nc1ccccc1OCC(O)CN1CC=C(c2ccccc2)CC1 (centres unmarked) [Compound 6, N-[2-[2-Hydroxy-3-(4-phenyl-3,6-dihydro-2H-pyridin-1-yl)-propoxy]-phenyl]-acetamide] | < 100
CC(=O)c1ccccc1OCC(O)CN1CC=C(c2ccccc2)CC1 (centres unmarked) [Compound 7, 1-[2-[2-Hydroxy-3-(4-phenyl-3,6-dihydro-2H-pyridin-1-yl)-propoxy]-phenyl]-ethanone] | < 100
Cc1ccc(OCC(O)CN2CC=C(c3ccccc3)CC2)cc1C (centres unmarked) [Compound 8, 1-(3,4-Dimethyl-phenoxy)-3-(4-phenyl-3,6-dihydro-2H-pyridin-1-yl)-propan-2-ol] | < 100
CC(=O)Nc1cc(Cl)ccc1OCC(O)CN1CC=C(c2ccccc2)CC1 (centres unmarked) [Compound 9, N-[5-Chloro-2-[2-hydroxy-3-(4-phenyl-3,6-dihydro-2H-pyridin-1-yl)-propoxy]-phenyl]acetamide] | < 100
OC(COc1cccc2ccccc12)CN1CC=C(c2ccccc2)CC1 (centres unmarked) [Compound 10, 1-(Naphthalen-1-yloxy)-3-(4-phenyl-3,6-dihydro-2H-pyridin-1-yl)-propan-2-ol] | < 100
OC(COc1cccc(C(F)(F)F)c1)CN1CC=C(c2ccc(F)cc2)CC1 (centres unmarked) [Compound 11, 1-[4-(4-Fluoro-phenyl)-3,6-dihydro-2H-pyridin-1-yl)-3-(3-trifluoromethyl-phenoxy)-propan-2-ol] | < 100
NC(=O)c1ccccc1OCC(O)CN1CC=C(c2ccc(F)cc2)CC1 (centres unmarked) [Compound 12, 2-[3-[4-(4-Fluoro-phenyl)-3,6-dihydro-2H-pyridinol-yl]-2-hydroxy-propoxy]-benzamide] | < 100
NC(=O)Nc1ccccc1OCC(O)CN1CC=C(c2ccc(F)cc2)CC1 (centres unmarked) [Compound 13, [2-[3-[4-(4-Fluoro-phenyl)-3,6-dihydro-2H-pyridin-1-yl]-2-hydroxy-propoxy]-phenyl]-urea] | < 100
CC(=O)Nc1ccccc1OCC(O)CN1CC=C(c2ccc(Cl)cc2)CC1 (centres unmarked) [Compound 14] | < 100
